# Results: patent publication US20230339970A1, “CASEIN KINASE 1 DELTA MODULATORS” (priority 2020, published 2023)
# Key:
# human CSNK1D = target: T1, human CSNK1D (Homo sapiens, UniProt P48730); assay: Whole Cell nBRET CSNK1D Binding Assay; details: living CHO cells stably expressing human CSNK1D tagged with nanoluciferase; NanoBret tracer 130 nM; 2 hours at 37 C
# T1 construct: expressed in transfected cells
# [1] = target: T2, human recombinant GST cleaved CSNK1D (Homo sapiens, UniProt P48730); assay: Purified Enzyme Assay (ADP-Glo CSNK1D Kinase Assay); format: biochemical; details: 2 nM CSNK1D; peptide substrate 150 μM; ATP 20 μM; 45 minutes at room temperature
# T2 construct: GST (cleaved yes); purchased University of Dundee clone DU 19064
# Procedure, shortened: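 GST-cleaved human recombinant CSNK1D phosphorylates peptide PLSRTL-pS-VASLPGL with ATP; compounds added in dose-response, 45 min at room temperature. ADP formed measured by ADP-Glo luminescence and converted to percent activity.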
# T1 sequence (P48730 whole entry): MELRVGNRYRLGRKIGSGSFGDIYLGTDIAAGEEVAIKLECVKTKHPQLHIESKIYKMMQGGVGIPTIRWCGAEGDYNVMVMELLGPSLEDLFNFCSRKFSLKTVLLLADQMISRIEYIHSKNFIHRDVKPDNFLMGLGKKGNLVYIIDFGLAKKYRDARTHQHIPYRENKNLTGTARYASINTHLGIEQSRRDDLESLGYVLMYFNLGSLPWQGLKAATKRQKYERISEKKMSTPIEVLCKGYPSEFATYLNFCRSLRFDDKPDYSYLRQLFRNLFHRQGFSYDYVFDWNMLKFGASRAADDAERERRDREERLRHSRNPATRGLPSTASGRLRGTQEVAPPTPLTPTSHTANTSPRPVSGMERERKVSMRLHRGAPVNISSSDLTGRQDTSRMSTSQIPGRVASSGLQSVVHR
# T2 sequence (P48730 whole entry): as above
Structure (SMILES),IC50 (human CSNK1D),IC50 [1]
"Cc1cc(-c2c(-c3ccc(F)cc3)nn3c2CO[C@@H](C)C3)c2cn[nH]c2n1 (single isomer, unassigned) [Example 83, (*S)-2-(4-Fluorophenyl)-6-methyl-3-(6-methyl-1H-pyrazolo[3,4-b]pyridin-4-yl)-6,7-dihydro-4H-pyrazolo[5,1-c][1,4]oxazine]",34 nM,3 nM
"Fc1ccc(-c2nn3c(c2-c2ccnc4[nH]ncc24)CO[C@H](C2CCC2)C3)nc1 (single isomer, unassigned) [Example 110, (*R)-6-Cyclobutyl-2-(5-fluoropyridin-2-yl)-3-(1H-pyrazolo[3,4-b]pyridin-4-yl)-6,7-dihydro-4H-pyrazolo[5,1-c][1,4]oxazine]",1170 nM,49 nM
"C[C@H]1C[C@H](C)n2nc(-c3ccc(F)cn3)c(-c3ccnc4[nH]ncc34)c2O1 (single isomer, unassigned) [Example 205, (5*S,7*S)-2-(5-Fluoropyridin-2-yl)-5,7-dimethyl-3-(1H-pyrazolo[3,4-b]pyridin-4-yl)-6,7-dihydro-5H-pyrazolo[5,1-b][1,3]oxazine]",171 nM,5 nM
"CC1(C)COc2c(-c3ccnc4cc[nH]c34)c(-c3ccc(F)cn3)nn2C1 [Example 450, 2-(5-Fluoro-2-pyridyl)-6,6-dimethyl-3-(1H-pyrrolo[3,2-b]pyridin-7-yl)-5,7-dihydropyrazolo[5,1-b][1,3]oxazine]",1050 nM,75 nM
"Fc1ccc(-c2nn3c(c2-c2ccnc4[nH]ncc24)CC(F)(F)CC3)nc1 [Example 48, 4-[5,5-Difluoro-2-(5-fluoro-2-pyridyl)-6,7-dihydro-4H-pyrazolo[1,5-a]pyridin-3-yl]-1H-pyrazolo[3,4-b]pyridine]",924 nM,40 nM
"Cc1cc(-c2c(-c3ccc(F)cn3)nn3c2OC(C)CC3C)c2cn[nH]c2n1 (single isomer, unassigned) [Example 207, (5*R,7*S)-2-(5-Fluoro-2-pyridyl)-5,7-dimethyl-3-(6-methyl-H-pyrazolo[3,4-b]pyridin-4-yl)-6,7-dihydro-5H-pyrazolo[5,1-b][1,3]oxazine]",1770 nM,51 nM
"C[C@H]1OCCn2nc(-c3ccc(F)cn3)c(-c3ccnc4[nH]ccc34)c21 [Example 80, (R)-2-(5-Fluoropyridin-2-yl)-4-methyl-3-(1H-pyrrolo[2,3-b]pyridin-4-yl)-6,7-dihydro-4H-pyrazolo[5,1-c][1,4]oxazine]",3060 nM,18 nM
"COCC1CCc2c(-c3cc(C)nc4[nH]ncc34)c(-c3ccc(F)cn3)nn2C1 (single isomer, unassigned) [Example 296, (*S)-4-[2-(5-Fluoro-2-pyridyl)-6-(methoxymethyl)-4,5,6,7-tetrahydropyrazolo[1,5-a]pyridin-3-yl]-6-methyl-1H-pyrazolo[3,4-b]pyridine]",240 nM,17 nM
"CCn1ncc2cc(-c3c(-c4ccc(F)cn4)nn4c3OCCC4)cnc21 [Example 441, 3-(1-Ethyl-1H-pyrazolo[3,4-b]pyridin-5-yl)-2-(5-fluoropyridin-2-yl)-6,7-dihydro-5H-pyrazolo[5,1-b][1,3]oxazine]",1870 nM,44 nM
"Fc1ccc(-c2nn3c(c2-c2ccnc4[nH]ncc24)CCC(F)(F)C3)nc1 [Example 44, 4-(6,6-Difluoro-2-(5-fluoropyridin-2-yl)-4,5,6,7-tetrahydropyrazolo[1,5-a]pyridin-3-yl)-1H-pyrazolo[3,4-b]pyridine]",296 nM,16 nM
"COCC1(F)CCc2c(-c3c(F)cnc4[nH]ncc34)c(-c3ccc(F)cn3)nn2C1 (single isomer, unassigned) [Example 302, (*S)-5-Fluoro-4-[6-fluoro-2-(5-fluoro-2-pyridyl)-6-(methoxymethyl)-5,7-dihydro-4H-pyrazolo[1,5-a]pyridin-3-yl]-1H-pyrazolo[3,4-b]pyridine]",3250 nM,132 nM
"Fc1ccc(-c2nn3c(c2-c2ccnc4[nH]ncc24)[C@H]2CC[C@@H]3C2)nc1 (single isomer, unassigned) [Example 63, (4*S,7*R)-2-(5-Fluoropyridin-2-yl)-3-(1H-pyrazolo[3,4-b]pyridin-4-yl)-4,5,6,7-tetrahydro-4,7-methanopyrazolo[1,5-a]pyridine]",320 nM,12 nM

# More lines, in order of falling IC50 (human CSNK1D), values ahead:
IC50 (human CSNK1D),IC50 [1],Structure (SMILES)
79 nM,4 nM,"Fc1ccc(-c2nn3c(c2-c2ccnc4[nH]ncc24)COC2(C3)CC2(F)F)nc1 (single isomer, unassigned) [Example 433, (*R)-1′. 1′-Difluoro-2-(5-fluoro-2-pyridyl)-3-(1H-pyrazolo[3,4-b]pyridin-4-yl)spiro[4,7-dihydropyrazolo[5,1-c][1,4]oxazine-6,2′-cyclopropane]]"
70 nM,8 nM,"CC1(C)COc2c(-c3ccn4nccc4c3)c(-c3ccc(F)cn3)nn2C1 [Example 449, 2-(5-Fluoropyridin-2-yl)-6,6-dimethyl-3-(pyrazolo[1,5-a]pyridin-5-yl)-6,7-dihydro-5H-pyrazolo[5,1-b][1,3]oxazine]"
69 nM,12 nM,"[2H]C([2H])([2H])C1(C([2H])([2H])[2H])Cn2nc(-c3ccc(F)cn3)c(-c3c(F)c(C)nc4[nH]nc(C)c34)c2CO1 [Example 409, 3-(5-Fluoro-3,6-dimethyl-1H-pyrazolo[3,4-b]pyridin-4-yl)-2-(5-fluoropyridin-2-yl)-6,6-bis(methyl-d3)-6,7-dihydro-4H-pyrazolo[5,1-c][1,4]oxazine]"
63 nM,3 nM,"COCC1(C)CCc2c(-c3cc(C)nc4[nH]ncc34)c(-c3ccc(F)cn3)nn2C1 (single isomer, unassigned) [Example 56, (*R)-4-(2-(S-Fluoropyridin-2-yl)-6-(methoxymethyl)-6-methyl-4,5,6,7-tetrahydropyrazolo[1,5-a]pyridin-3-yl)-6-methyl-1H-pyrazolo[3,4-b]pyridine]"
35 nM,3 nM,"Cc1nc(-c2c(-c3ccc(F)cc3)nn3c2OCC2(CC2)C3)c2cn[nH]c2n1 [Example 465, 2′-(4-Fluorophenyl)-3′-(6-methyl-1H-pyrazolo[3,4-d]pyrimidin-4-yl)-5′H,7′H-spiro[cyclopropane-1,6′-pyrazolo[5,1-b][1,3]oxazine]]"
29 nM,3 nM,"[2H]C([2H])([2H])C1(C([2H])([2H])[2H])Cn2nc(-c3ccc(F)cn3)c(-c3ccnc4[nH]nc(F)c34)c2CO1 [Example 398, 3-(3-Fluoro-1H-pyrazolo[3,4-b]pyridin-4-yl)-2-(5-fluoropyridin-2-yl)-6,6-bis(methyl-d3)-6,7-dihydro-4H-pyrazolo[5,1-c][1,4]oxazine]"
26 nM,6 nM,"[2H]C([2H])([2H])C1(C([2H])([2H])[2H])Cn2nc(-c3ccc(F)cn3)c(-c3c(F)c(C)nc4[nH]nc(Cl)c34)c2CO1 [Example 408, 3-(3-Chloro-5-fluoro-6-methyl-1H-pyrazolo[3,4-b]pyridin-4-yl)-2-(5-fluoropyridin-2-yl)-6,6-bis(methyl-d3)-6,7-dihydro-4H-pyrazolo[5,1-c][1,4]oxazine]"
24 nM,3 nM,"Cc1nc2[nH]ncc2c(-c2c(-c3ccc(F)cn3)nn3c2CO[C@@](C)(C(F)(F)F)C3)c1F (single isomer, unassigned) [Example 420, (*R)-3-(5-Fluoro-6-methyl-1H-pyrazolo[3,4-b]pyridin-4-yl)-2-(5-fluoropyridin-2-yl)-6-methyl-6-(trifluoromethyl)-6,7-dihydro-4H-pyrazolo[5,1-c][1,4]oxazine]"
18 nM,2 nM,"CC1(CF)CCc2c(-c3c(F)cnc4[nH]ncc34)c(-c3ccc(F)cn3)nn2C1 (single isomer, unassigned) [Example 293, (*S)-5-Fluoro-4-[6-(fluoromethyl)-2-(5-fluoro-2-pyridyl)-6-methyl-5,7-dihydro-4H-pyrazolo[1,5-a]pyridin-3-yl]-1H-pyrazolo[3,4-b]pyridine]"
11 nM,2 nM,"CC1(C)COc2c(-c3ccnc4cn[nH]c34)c(-c3ccc(F)cc3)nn2C1 [Example 453, 2-(4-Fluorophenyl)-6,6-dimethyl-3-(1H-pyrazolo[4,3-b]pyridin-7-yl)-5,7-dihydropyrazolo[5,1-b][1,3]oxazine]"
7 nM,2 nM,"CC1(C)Cc2c(-c3ccnc4[nH]ccc34)c(-c3ccc(F)cn3)nn2C1 [Example 233, 4-[2-(5-Fluoro-2-pyridyl)-5,5-dimethyl-4,6-dihydropyrrolo[1,2-b]pyrazol-3-yl]-1H-pyrrolo[2,3-b]pyridine]"
6 nM,5 nM,"C[C@@]1(CF)CCc2c(-c3ccnc4[nH]nc(Cl)c34)c(-c3ccc(F)cn3)nn2C1 (single isomer, unassigned) [Example 291, (*R)-3-Chloro-4-(6-(fluoromethyl)-2-(5-fluoropyridin-2-yl)-6-methyl-4,5,6,7-tetrahydropyrazolo[1,5-a]pyridin-3-yl)-1H-pyrazolo[3,4-b]pyridine]"
3 nM,2 nM,"Fc1ccc(-c2nn3c(c2-c2c(F)cnc4[nH]ncc24)OCC2(C3)CC2(F)F)cc1 (stereo not shown) [Example 471, 2,2-Difluoro-3′-(5-fluoro-1H-pyrazolo[3,4-b]pyridin-4-yl)-2′-(4-fluorophenyl)-5′H,7′H-spiro[cyclopropane-1,6′-pyrazolo[5,1-b][1,3]oxazine]]"
3 nM,1 nM,"CC1(C(F)(F)F)Cn2nc(-c3ccc(F)cc3)c(-c3ccnc4[nH]ncc34)c2CO1 (single isomer, unassigned) [Example 417, (*)-2-(4-Fluorophenyl)-6-methyl-3-(1H-pyrazolo[3,4-b]pyridin-4-yl)-6-(trifluoromethyl)-6,7-dihydro-4H-pyrazolo[5,1-c][1,4]oxazine]"
